The test system of test [1] is caspase 3. The test is described as follows: Caspase 3 activity in NIH 3T3 cells, simvastatin. To be noted: 24 hours hypoxia. In kind it is cell-based. On the procedure:
One hundred thousand NIH 3T3 cells were treated with simvastatin (1 μM, 5 μM, or 10 μM) or controls and made hypoxic for 24 hours as described elsewhere (Misra et al., J. Vasc. Interv. Radiol., 21:896-902 (2010)).
Apoptosis was assessed using an ELISA assay for caspase 3. Cellular protein was extracted from one hundred thousand cultured cells as described elsewhere (Misra et al., J. Vasc. Interv. Radiol., 21:896-902 (2010)). The enzymatic activity of caspase 3 was accessed by Caspase Glo assay (G811C, Promega, Madison, Wis.).

The test system of test [2] is MMP-9. The experiment in a line: RT-PCR for MMP-9 in kidneys, simvastatin. In kind it is in vivo, mice. On the procedure:
Animals were housed at 22° C. temperature, 41% relative humidity, and 12-/12-hour light/dark cycles. Animals were allowed access to water and food ad libitum. […] Sixty-eight male C57BL/6 mice (Jackson Laboratories, Bar Harbor, Me.) weighing 25-30 grams were used for the present study (FIG. 18). Chronic kidney disease was created by surgical removal of the right kidney accompanied by ligation of the arterial blood supply to the upper pole of the left kidney as described elsewhere (Misra et al., J. Vasc. Interv. Radiol., 21:1255-1261 (2010); see, also, FIG. 18A). Three weeks after nephrectomy, the animals were started on simvastatin (40 mg/kg administered i.p. three times per week) or PBS (equal amount of volume used for simvastatin i.p. controls). Simvastatin was prepared as described elsewhere (Wilson et al., Arterioscler Thromb. Vasc. Biol., 21:122-128 (2001)). A week later, an AVF was created by connecting the right carotid artery to the ipsilateral jugular vein (FIG. 18B; see, also, Misra et al., J. Vasc. Interv. Radiol., 21:1255-1261 (2010) and Yang et al., J. Vasc. Interv. Radiol., 20:946-950 (2009)). Animals were sacrificed at day 7, day 14, and day 28 following AVF placement for real time polymerase chain reaction (RT-PCR) and histomorphometric analyses (FIG. 18C). Serum BUN and creatinine were measured by removing blood from the tail vein at baseline (before nephrectomy), at AVF creation, and at the time of sacrifice. […] These animals were started on simvastatin (40 mg/kg i.p.) or PBS (equal amount of volume i.p.) every other day one week before AVF placement and then sacrificed four weeks after fistula placement for histomorphometric analysis.
The tissue was stored in RNA stabilizing reagent (Qiagen, Gaithersburg, Md.) as per the manufacturer's guidelines. To isolate the RNA, the specimens were homogenized, and total RNA was isolated using RNeasy mini kit (Qiagen) (Misra et al., J. Vasc. Interv. Radiol., 21:1255-1261 (2010); and Yang et al., J. Vasc. Interv. Radiol., 20:946-950 (2009)).
Expression for the gene of interest was determined using RT-PCR analysis as described elsewhere (Misra et al., J. Vasc. Interv. Radiol., 21:1255-1261 (2010)). Commercial PCR primers for the gene of interest were purchased from SA Biosciences (Frederick, Md.).

The record followed here is patent US20140011822A1, “METHODS AND MATERIALS FOR REDUCING VENOUS STENOSIS FORMATION OF AN ARTERIOVENOUS FISTULA OR GRAFT” (priority 2011, published 2014).

For `CCC(C)(C)C(=O)O[C@H]1C[C@@H](C)C=C2C=C[C@H](C)[C@H](CC[C@@H]3C[C@@H](O)CC(=O)O3)[C@H]21` [simvastatin], the “average increase in caspase 3 activity” value is listed as 281% in test [1] (5 μM) and 1103% in test [1] (10 μM). The “average gene expression of MMP-9” value stood at 0.42±0.13 in test [2] (day 7) and 0.64±0.09 in test [2] (day 28). Also, the “Average reduction of MMP-9 gene expression” value in test [2] (day 7, vs control) is on record as 57%; in test [2] (day 28, vs control), 44%.
